Measured values taken from ChEMBL document CHEMBL5046251, “Discovery of a Series of Pyrimidine Carboxamides as Inhibitors of Vanin-1” (J Med Chem, 2022).
Calls of active or inactive are those of the source. The rule behind the calls is not given here.

Experiments:
[1] = Unbound clearance in mouse; assay type: ADME, organism-based; conditions: in vivo
[2] = Lipophilicity, log D of the compound in Octanol/buffer by shake-flask method
Mus musculus [3] = experiment: Anti-colitis activity against DSS-induced colitis BALB/c mouse model assessed as effect on colon length at 50 mg/kg, sc measured after 14 days; assay type: functional, organism-based; conditions: time 14.0 day
[4] = Apparent intrinsic clearance in mouse liver microsome; assay type: ADME; conditions: liver microsomes, read-out: CLH
[5] = Total clearance in mouse; assay type: ADME, organism-based; conditions: in vivo
[6] = Volume of distribution at steady state in mouse; assay type: ADME, organism-based; conditions: in vivo, read-out: Vdss
Mus musculus [7] = experiment: Anti-colitis activity against DSS-induced BALB/c mouse model assessed as increase in body weight at 50 mg/kg, sc measured on day 8 and 9; assay type: functional, organism-based; conditions: time 8-9 day
[8] = Intrinsic clearance in human liver microsomes; assay type: ADME, Microsome
[9] = Apparent permeability across apical to basolateral side in RRCK cells; conditions: dog, MDCK
[10] = Apparent intrinsic clearance in human liver microsome; assay type: ADME; conditions: liver microsomes, read-out: CLH
[11] = Half life in mouse; assay type: ADME, organism-based; conditions: in vivo
Pantetheinase [12] = biological target: T1, Pantetheinase (Mus musculus, UniProt Q9Z0K8); experiment: Inhibition of mouse vanin-1
T1 sequence (Q9Z0K8 whole entry): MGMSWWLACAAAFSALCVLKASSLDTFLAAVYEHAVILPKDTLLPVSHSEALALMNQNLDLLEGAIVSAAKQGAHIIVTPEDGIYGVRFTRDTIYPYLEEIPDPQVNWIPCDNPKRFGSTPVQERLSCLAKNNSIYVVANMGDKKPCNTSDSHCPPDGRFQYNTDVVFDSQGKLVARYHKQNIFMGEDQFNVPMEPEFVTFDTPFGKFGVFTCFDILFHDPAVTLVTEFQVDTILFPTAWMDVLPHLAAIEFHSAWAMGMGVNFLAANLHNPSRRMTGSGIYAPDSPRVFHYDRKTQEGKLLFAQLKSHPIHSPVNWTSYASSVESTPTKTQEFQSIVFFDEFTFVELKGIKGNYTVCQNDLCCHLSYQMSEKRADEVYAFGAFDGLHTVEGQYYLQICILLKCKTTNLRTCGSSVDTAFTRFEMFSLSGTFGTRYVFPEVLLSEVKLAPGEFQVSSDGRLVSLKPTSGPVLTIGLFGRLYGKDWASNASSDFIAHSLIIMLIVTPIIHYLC

Biotinidase = biological target: T2, Biotinidase (Homo sapiens, UniProt P43251); experiment: Inhibition of N-terminal FLAG/His6-tagged human biotinidase expressed in COS cells using biotinyl-7-amino-4-trifluoromethylcoumarin as substrate preincubated for 10 mins followed by substrate addition and measured after 90 mins; assay type: cell-based
T2 sequence (P43251 whole entry): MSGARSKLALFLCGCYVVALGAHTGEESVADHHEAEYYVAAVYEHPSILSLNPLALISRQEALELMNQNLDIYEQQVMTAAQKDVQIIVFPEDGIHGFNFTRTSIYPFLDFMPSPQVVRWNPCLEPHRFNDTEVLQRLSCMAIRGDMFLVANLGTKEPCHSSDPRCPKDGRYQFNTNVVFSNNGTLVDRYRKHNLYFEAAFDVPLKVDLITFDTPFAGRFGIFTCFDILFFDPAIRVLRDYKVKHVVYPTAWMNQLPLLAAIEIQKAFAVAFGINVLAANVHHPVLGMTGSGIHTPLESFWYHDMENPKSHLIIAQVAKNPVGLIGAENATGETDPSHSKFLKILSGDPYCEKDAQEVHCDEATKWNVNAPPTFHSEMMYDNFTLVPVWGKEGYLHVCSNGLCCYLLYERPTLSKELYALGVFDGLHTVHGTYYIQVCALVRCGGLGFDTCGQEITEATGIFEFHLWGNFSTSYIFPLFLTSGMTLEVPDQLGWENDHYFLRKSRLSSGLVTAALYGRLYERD

[13] = Oral bioavailability in mouse; assay type: ADME, organism-based; conditions: in vivo
Pantetheinase [14] = biological target: T3, Pantetheinase (Homo sapiens, UniProt O95497); experiment: Inhibition of human plasma vanin-1 using pantetheine-7-amino-4-trifluoromethykournarin as substrate preincubated for 30 mins followed by substrate addition; assay type: cell-free
T3 sequence (O95497 whole entry): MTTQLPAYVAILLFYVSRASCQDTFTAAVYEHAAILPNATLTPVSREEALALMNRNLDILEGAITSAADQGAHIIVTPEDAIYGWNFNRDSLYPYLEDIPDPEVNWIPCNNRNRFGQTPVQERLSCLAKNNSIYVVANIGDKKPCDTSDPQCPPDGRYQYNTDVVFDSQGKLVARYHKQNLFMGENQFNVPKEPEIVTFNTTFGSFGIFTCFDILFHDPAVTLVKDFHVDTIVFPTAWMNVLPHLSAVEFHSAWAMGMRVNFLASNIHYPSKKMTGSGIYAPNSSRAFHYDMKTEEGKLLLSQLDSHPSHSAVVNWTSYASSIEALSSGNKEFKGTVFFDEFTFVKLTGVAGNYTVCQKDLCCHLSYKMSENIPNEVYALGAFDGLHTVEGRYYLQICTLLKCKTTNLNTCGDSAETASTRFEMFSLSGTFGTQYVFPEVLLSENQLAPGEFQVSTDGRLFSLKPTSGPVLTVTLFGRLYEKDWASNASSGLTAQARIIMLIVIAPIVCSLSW

[15] = Plasma protein binding in mouse assessed as unbound fraction; assay type: ADME, cell-free
Mus musculus [16] = experiment: Anti-colitis activity against DSS-induced BALB/c mouse model assessed as reduction in disease activity index at 50 mg/kg, sc measured on day 8 and 9; assay type: functional, organism-based; conditions: time 8-9 day

For `N#Cc1cccc(C(=O)c2cnc(NC3(c4cncnc4)CC3)nc2)c1`, which CL free [1] is on record?
Its CL free is 49 mL/min/kg.

And the logD [2]?
The logD was 1.2.

And the Activity (Mus musculus [3])?
Its Activity is “Active”.

And the CLint scaled [4]?
Its CLint scaled is 39 mL/min/kg.

And the clearance [5]?
The clearance was 29 mL/min/kg.

What about the Vd [6] of the same molecule?
The Vd was 1.1 L/kg.

And the Activity (Mus musculus [7])?
The Activity was “Active”.

And the Intrinsic clearance [8]?
Its Intrinsic clearance is 14 µL/min/mg.

What about the Papp A→B [9] of the same molecule?
Its Papp A→B is 27 ×10⁻⁶ cm/s.

What about the CLint scaled [10] of the same molecule?
The CLint scaled was 14 mL/min/kg.

And the half-life [11]?
The half-life was 1 h.

What about the IC50 (Pantetheinase [12]) of the same molecule?
The IC50 was 4.8 nM.

What about the IC50 (Biotinidase) of the same molecule?
Its IC50 is 24000 nM.

What about the bioavailability [13] of the same molecule?
Its bioavailability is 29%.

And the IC50 (Pantetheinase [14])?
Its IC50 is 12 nM.

What about the fraction unbound [15] of the same molecule?
The fraction unbound was 0.0046.

And the Activity (Mus musculus [16])?
The Activity was “Active”.
